Experimental findings from patent publication US20260042764A1, “COMPOSITIONS AND METHODS FOR INHIBITION OF KRAS” (TheRas, Inc., priority 2022, published 2026) are described below.

Usually pIC50 stands for the IC50 on a negative log10 scale, so that one unit is a factor of ten. Read a low pIC50 as a high IC50.

Molecules are shown by their SMILES. pIC50: −log10 of the molar value.

In assay [1] the target is T1, Avi-KRAS G12R (1-169) GppNHp/RAF1 RBD-3xFLAG (52-151) (Homo sapiens, UniProt P01116, G12R).
T1 construct: Avi-KRAS G12R (1-169)
T1 sequence (P01116 1-169 isoform P01116-2 G12R): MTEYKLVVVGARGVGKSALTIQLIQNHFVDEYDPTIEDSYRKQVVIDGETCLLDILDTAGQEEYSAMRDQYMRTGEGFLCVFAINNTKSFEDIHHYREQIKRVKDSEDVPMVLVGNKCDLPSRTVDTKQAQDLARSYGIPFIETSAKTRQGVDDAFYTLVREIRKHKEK
Description: Raf1-KRAS G12R-GppNHP disruption HTRF assay (Biological Example 1). Format: binding. The gist of the method:
(§1)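 Compounds were tested for disruption of KRAS–RAF1 RBD binding by HTRF in 50 mM Tris pH 7.5, 100 mM NaCl, 5 mM MgCl2, 0.1% BSA, 0.01% Tween, 10% DMSO. Protein mix was incubated 1 h at room temperature with shaking, then detection reagents added for another 1 h. Activity expressed as percent of DMSO control.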
On the technique in general: TR-FRET usually uses a lanthanide donor and a delayed reading to cut background.

The test system of assay [2] is SW620 cells (KRAS G12V). Description: Cell-based pERK HTRF assay in SW620 cell (Biological Example 4). As to conditions: Homo sapiens, SW-620, SW620 (KRAS G12V) cells, pERK HTRF. A digest of the protocol:
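SW620 cells were treated for 4 h with compound in a 9-point half-log series from 1 μM top (0.25% DMSO), then lysed. Phospho-ERK was detected by HTRF with d2 and Eu cryptate antibodies after 4–24 h at room temperature, read at 615 nm emission.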

Assay [3] has as its target T2, Avi-KRAS G12V (1-169) GppNHp/RAF1 RBD-3xFLAG (52-151) (Homo sapiens, UniProt P01116, G12V).
T2 construct: Avi-KRAS G12V (1-169)
Description: Raf1-KRAS G12V-GppNHP disruption HTRF assay (Biological Example 1). The format is binding. A digest of the protocol:
as §1

The subject of assay [4] is GP2d cells (KRAS G12D). Description: Cell-based pERK HTRF assay in GP2d cell (Biological Example 2). As to conditions: GP2d, GP2d (KRAS G12D) cells, pERK HTRF. The gist of the method:
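HTRF read-out of pERK (excitation 320 nm, emission 615 nm) after lysates sat 4–24 h at room temperature with Eu cryptate and d2 antibodies.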

Assay [5] addresses T3, Avi-KRAS G12D (1-169) GppNHp/RAF1 RBD-3xFLAG (52-151) (Homo sapiens, UniProt P01116, G12D).
T3 construct: Avi-KRAS G12D (1-169)
Description: Raf1-KRAS G12D-GppNHP disruption HTRF assay (Biological Example 1). Format: binding. A digest of the protocol:
as §1

Assay [6] addresses T4, Avi-KRAS WT (1-169) GppNHp/RAF1 RBD-3xFLAG (52-151) (Homo sapiens, UniProt P01116).
T4 construct: Avi-KRAS WT (1-169)
Description: Raf1-KRAS WT-GppNHP disruption HTRF assay (Biological Example 1). The format is binding. The gist of the method: as §1

Where [7] appears, read: KRAS G12R, GppNHp-loaded, class symbols.
Setting [8] is: KRAS G12V, GppNHp-loaded, class symbols.
Setting [9] is: KRAS G12D, GppNHp-loaded, class symbols.
Where [10] appears, read: KRAS WT, GppNHp-loaded, class symbols.

T2 sequence (P01116 1-169 isoform P01116-2 G12V): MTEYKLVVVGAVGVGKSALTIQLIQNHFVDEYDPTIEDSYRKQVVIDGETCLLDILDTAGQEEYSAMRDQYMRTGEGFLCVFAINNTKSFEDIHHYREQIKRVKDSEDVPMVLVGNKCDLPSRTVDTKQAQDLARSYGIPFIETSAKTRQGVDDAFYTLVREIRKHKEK
T3 sequence (P01116 1-169 isoform P01116-2 G12D): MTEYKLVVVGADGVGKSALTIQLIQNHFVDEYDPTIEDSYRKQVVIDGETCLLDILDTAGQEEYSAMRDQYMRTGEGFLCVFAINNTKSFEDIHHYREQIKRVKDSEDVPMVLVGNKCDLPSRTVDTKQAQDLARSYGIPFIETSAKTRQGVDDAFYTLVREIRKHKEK
T4 sequence (P01116 1-169 isoform P01116-2): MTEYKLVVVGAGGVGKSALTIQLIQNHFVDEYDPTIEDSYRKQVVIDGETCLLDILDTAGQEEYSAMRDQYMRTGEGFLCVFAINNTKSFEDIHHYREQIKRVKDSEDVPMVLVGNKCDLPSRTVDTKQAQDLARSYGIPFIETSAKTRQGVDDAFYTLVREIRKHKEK

As to `CN(c1nc(OC[C@@]23CCCN2C[C@H](F)C3)nc2c(F)c(-c3ccc(F)c4sc(N)c(C#N)c34)c(C(F)(F)F)cc12)C1CCOCC1` [Compound 264], the pIC50 in assay [1] (KRAS G12R, GppNHp-loaded, Table 11) was 6.00 to 7.00; in assay [2] it was 6.00 to 7.00; in assay [3] (KRAS G12V, GppNHp-loaded, Table 11), 5.00 to 6.00; in assay [4] it was greater than 7.00; in assay [5] (KRAS G12D, GppNHp-loaded, Table 11) it was 6.00 to 7.00; in assay [6] (KRAS WT, GppNHp-loaded, Table 11), 6.00 to 7.00.

Regarding `N#Cc1c(N)sc2c(F)ccc(-c3c(C(F)(F)F)cc4c(N5C6CC5CS(=O)(=O)C6)nc(OC[C@@]56CCCN5C[C@H](F)C6)nc4c3F)c12` [Compound 357], the pIC50 in assay [1] (KRAS G12R-GppNHp/RAF1 RBD HTRF) is 6.00 to 7.00; in assay [2], 6.00 to 7.00; in assay [3] (KRAS G12V-GppNHp/RAF1 RBD HTRF), 5.00 to 6.00; in assay [4], greater than 7.00; in assay [5] (KRAS G12D-GppNHp/RAF1 RBD HTRF), 6.00 to 7.00; in assay [6] (KRAS WT-GppNHp/RAF1 RBD HTRF), 6.00 to 7.00.

As to `CCN(c1nc(OC[C@@]23CCCN2C[C@H](F)C3)nc2c(F)c(-c3ccc(F)c4sc(N)c(C#N)c34)c(C(F)(F)F)cc12)[C@H]1CCN(C(=O)OC2COC2)[C@@H]1C` (atropisomer, axis not shown) [Compound 809], the pIC50 in assay [1] (setting [7]), in assay [2] (class symbols), in assay [3] (setting [8]), in assay [4] (class symbols), in assay [5] (setting [9]) and in assay [6] (setting [10]) was greater than 7.00 each time.

As to `CN(C)C(=O)c1nnn2c1CN(c1nc(OC[C@@]34CCCN3C[C@H](F)C4)nc3c(F)c(-c4ccc(F)c5sc(N)c(C#N)c45)c(C(F)(F)F)cc13)CC2` [Compound 466], the negative-log IC50 (pIC50) is 6.00 to 7.00 in assay [1] (KRAS G12R-GppNHp/RAF1 RBD HTRF); greater than 7.00 in assay [2]; 6.00 to 7.00 in assay [3] (KRAS G12V-GppNHp/RAF1 RBD HTRF); greater than 7.00 in assay [4]; 6.00 to 7.00 in assay [5] (KRAS G12D-GppNHp/RAF1 RBD HTRF); 6.00 to 7.00 in assay [6] (KRAS WT-GppNHp/RAF1 RBD HTRF).

In the case of `CCN(c1nc(OC[C@@]23CCCN2C[C@H](F)C3)nc2c(F)c(-c3ccc(F)c4sc(N)c(C#N)c34)c(C(F)(F)F)cc12)[C@@H]1C[C@H](C)N(C(=O)C2CC2)C1` (atropisomer, axis not shown) [Compound 588], the negative logarithm of the IC50 (pIC50) in assay [1] (setting [7]) is 6.00 to 7.00; in assay [2] (class symbols), greater than 7.00; in assay [3] (setting [8]), 6.00 to 7.00; in assay [4] (class symbols), greater than 7.00; in assay [5] (setting [9]) it was 6.00 to 7.00; in assay [6] (setting [10]), 6.00 to 7.00.

For `CC(=O)N1C[C@H]2OCCN(c3nc(OC[C@@]45CCCN4C[C@H](F)C5)nc4c(F)c(-c5ccc(F)c6sc(N)c(C#N)c56)c(C(F)(F)F)cc34)[C@H]2C1` [Compound 480], the pIC50 in assay [1] (KRAS G12R-GppNHp/RAF1 RBD HTRF) was 5.00 to 6.00; in assay [2], greater than 7.00; in assay [3] (KRAS G12V-GppNHp/RAF1 RBD HTRF) it was 5.00 to 6.00; in assay [4], greater than 7.00; in assay [5] (KRAS G12D-GppNHp/RAF1 RBD HTRF) it was 5.00 to 6.00; in assay [6] (KRAS WT-GppNHp/RAF1 RBD HTRF), 5.00 to 6.00.

With `C[C@@H]1[C@H](N(C)c2nc(OC[C@@]34CCCN3C[C@H](F)C4)nc3c(F)c(-c4ccc(F)c5sc(N)c(C#N)c45)c(C(F)(F)F)cc23)CCN1C(=O)C1(F)CC1` [Compound 425], the pIC50 in assay [1] (KRAS G12R-GppNHp/RAF1 RBD HTRF) is 6.00 to 7.00; in assay [2] it was greater than 7.00; in assay [3] (KRAS G12V-GppNHp/RAF1 RBD HTRF), 5.00 to 6.00; in assay [4], greater than 7.00; in assay [5] (KRAS G12D-GppNHp/RAF1 RBD HTRF), 6.00 to 7.00; in assay [6] (KRAS WT-GppNHp/RAF1 RBD HTRF), 6.00 to 7.00.

In the case of `CCN(c1nc(OC[C@@]23CCCN2C[C@H](F)C3)nc2c(F)c(-c3ccc(F)c4sc(N)c(C#N)c34)c(C(F)(F)F)cc12)[C@H]1CCN(C(=O)N2C[C@H]3C[C@@H]2CO3)C1` (atropisomer, axis not shown) [Compound 653], the pIC50 in assay [1] (setting [7]), in assay [2] (class symbols), in assay [3] (setting [8]), in assay [4] (class symbols), in assay [5] (setting [9]) and in assay [6] (setting [10]) was greater than 7.00 each time.

As to `CC(C)C(=O)N1CC[C@H](N(CCF)c2nc(OC[C@@]34CCCN3C[C@H](F)C4)nc3c(F)c(-c4ccc(F)c5sc(N)c(C#N)c45)c(C(F)(F)F)cc23)C1` (atropisomer, axis not shown) [Compound 814], the pIC50 is greater than 7.00 in assay [1] (setting [7]); greater than 7.00 in assay [2] (class symbols); 6.00 to 7.00 in assay [3] (setting [8]); greater than 7.00 in assay [4] (class symbols); greater than 7.00 in assay [5] (setting [9]); 6.00 to 7.00 in assay [6] (setting [10]).
